Data published in patent US5364776A, “Method of hydroxylating 3-[3-(5-ethyl-2-methoxy-6-methylpyridyl)methyl]amino-5-ethyl-6-methyl-2( 1H)-pyridinone with liver slices” (Merck & Co., Inc., priority 1992, dated 1994).

Columns and labels:
[1] = molecular target: T1, recombinant HIV reverse transcriptase (HIV RTR) (Human immunodeficiency virus type 1 group M subtype B, UniProt P04585); assay: Reverse transcriptase assay: incorporation of tritiated deoxyguanosine monophosphate into acid-precipitable cDNA by recombinant HIV reverse transcriptase; assay type: biochemical; settings: poly r(C).oligo d(G)12-18 template, [3H]dGTP, pH 8.2 buffer, 37° C., 45 minutes
T1 construct: recombinant HIV reverse transcriptase (HIV RTR)
Protocol: The assay measures the incorporation of tritiated deoxyguanosine monophosphate by recombinant HIV reverse transcriptase (HIV RTR) (or other RT) into acid-precipitable cDNA at the Km values of dGTP and poly r(C).cndot.oligo d(G)12-18.
Thirty uL of a reaction mixture containing equal volumes of: 500 mM Tris.cndot.HCl (pH 8.2), 300 mM MgCl2, 1200 mM KCl, 10 mM DTT, 400 μg/mL poly r(c).cndot.oligo d(G) [prepared by dissolving 1.5 mg (25 U) poly r(C).cndot.oligo d(G) in 1.5 ml sterile distilled H2 O and diluting to 400 μg/ml], 0.1 μCi/μl [^3 H]dGTP, 160 μM dGTP, was added to 10 μl sterile distilled H2 O, and 2.5 μl of potential inhibitor. An aliquot of 10 μL of 5 nM purified HIV RTR was added to initiate the reaction. The mixture was incubated at 37° C. for 45 minutes.
After incubation is complete, the tubes were cooled in ice for 5 minutes. Ice-cold 13% TCA containing 10 mM NaPPi (200 μl) are added and the mixture incubated on ice for 30 minutes. The precipitated cDNA is removed by filtration using presoaked glass filters [TCA, NaPPi ]. The precipitate is then washed with 1N HCl, 10 mM NaPPi.
The filter discs are then counted in a scintillation counter.
Under these conditions [dGTP] and poly r(C).cndot.oligo d(G)12-18 each are approximately equal to the appropriate Km value. Approximately 5-6,000 cpm of [^3 H] GMP are incorporated into acid-precipitable material. The RT reaction is concentration- and time-dependent. […] The calculated IC50 values for the compounds of this invention are as follows: […]

[2] = In vitro metabolism of compound II with rat liver slices; assay type: in vitro ADME; settings: 157.7 μM, four hours, 37° C., pH 7.4, HPLC photodiode array-UV
Protocol: Compound II (157.7 μM) was incubated with rat liver slices (10.17 g wet weight, 250-400 μ thick, ~1.2 cm wide) in 100 ml of Williams' Medium E at pH 7.4 and at 37° C. under an atmosphere of 95% oxygen and 5% carbon dioxide. After four hours the incubation mixture was extracted with ethyl acetate. The extract was evaporated to dryness and the residue reconstituted in methanol. The reconstitute was subjected to preparative HPLC on a reverse-phase column with an on-line UV-diode array detector. Three major metabolites--Ia, Ib and Ic--were isolated for characterization by NMR spectroscopy and mass spectrometry.
The three major products were identified by proton NMR (500 MHz; see Table below) and mass spectrometry as resulting from α-hydroxylation of the ethyl group on the pyridinone (HPLC Peak designating compound Ia), and β- and α-hydroxylation of the ethyl group on the pyridine (designated compounds Ic and Ib, respectively). [drawing 14]

Row | Structure (SMILES) | IC50 [1] [µM] | number of major products (metabolites) formed [2] | number of minor products formed [2]
1 | CCc1cc(NCc2cc(CC)c(C)nc2OC)c(O)nc1C [Compound II, 3-[3-(5-ethyl-2-methoxy-6-methylpyridyl)methyl]amino-5-ethyl-6-methyl-2(1H)-pyridinone] | 0.029 | three | at least 5
2 | CCc1cc(CNc2cc(C(C)O)c(C)[nH]c2=O)c(OC)nc1C (stereo not drawn) [Ia, 3-[3-(5-ethyl-2-methoxy-6-methylpyridyl)methyl]amino-5-(1-hydroxy)ethyl-6-m ethyl-2(1H )-pyridinone] | 0.195 |  | 
3 | CCc1cc(NCc2cc(C(C)O)c(C)nc2OC)c(=O)[nH]c1C (stereo not drawn) [Ib, 3-[3-(5-(1-hydroxy)ethyl-2-methoxy-6-methylpyridyl)methyl]amino-5-ethyl-6-m ethyl-2(1H)-pyridinone] | 0.39 |  | 
4 | CCc1cc(NCc2cc(CCO)c(C)nc2OC)c(=O)[nH]c1C [Ic, 3-[3-(5-(2-hydroxy)ethyl-2-methoxy-6-methylpyridyl)-methyl]amino-5-ethyl-6-methyl-2(1H)-pyridinone] | 0.25 |  | 
